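48-hour exposure; five concentrations; linearly interpolated endpoints. TGI marks complete inhibition of growth.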
Legend:
Assay in all cases: NCI-60 cell line screen, 48 h
UO-31 renal = tested on: UO-31 renal
SNB-19 CNS = tested on: SNB-19 CNS
U251 CNS = tested on: U251 CNS
NCI-H522 lung = tested on: NCI-H522 lung
UACC-62 melanoma = tested on: UACC-62 melanoma
HCT-116 colon = tested on: HCT-116 colon
HCT-15 colon = tested on: HCT-15 colon
786-0 renal = tested on: 786-0 renal
RXF 393 renal = tested on: RXF 393 renal
SF-295 CNS = tested on: SF-295 CNS
MALME-3M melanoma = tested on: MALME-3M melanoma
K-562 leukemia = tested on: K-562 leukemia
BT-549 breast = tested on: BT-549 breast
SF-268 CNS = tested on: SF-268 CNS
ACHN renal = tested on: ACHN renal
OVCAR-8 ovarian = tested on: OVCAR-8 ovarian
SF-539 CNS = tested on: SF-539 CNS
A549 NSCLC = tested on: A549 NSCLC
OVCAR-3 ovarian = tested on: OVCAR-3 ovarian
SNB-75 CNS = tested on: SNB-75 CNS
HCC-2998 colon = tested on: HCC-2998 colon
PC-3 prostate = tested on: PC-3 prostate
EKVX NSCLC = tested on: EKVX NSCLC
NCI/ADR-RES ovarian = tested on: NCI/ADR-RES ovarian
SN12C renal = tested on: SN12C renal
NCI-H460 lung = tested on: NCI-H460 lung
UACC-257 melanoma = tested on: UACC-257 melanoma
KM12 colon = tested on: KM12 colon
IGROV1 ovarian = tested on: IGROV1 ovarian
OVCAR-5 ovarian = tested on: OVCAR-5 ovarian
MCF7 breast = tested on: MCF7 breast
NCI-H23 lung = tested on: NCI-H23 lung
T-47D breast = tested on: T-47D breast
RPMI-8226 leukemia = tested on: RPMI-8226 leukemia
OVCAR-4 ovarian = tested on: OVCAR-4 ovarian
HL-60(TB) leukemia = tested on: HL-60(TB) leukemia
TK-10 renal = tested on: TK-10 renal
HOP-62 NSCLC = tested on: HOP-62 NSCLC
M14 melanoma = tested on: M14 melanoma
SK-MEL-28 melanoma = tested on: SK-MEL-28 melanoma
COLO 205 colon = tested on: COLO 205 colon
LOX IMVI melanoma = tested on: LOX IMVI melanoma
MDA-MB-435 = tested on: MDA-MB-435
SW-620 colon = tested on: SW-620 colon
SK-MEL-2 melanoma = tested on: SK-MEL-2 melanoma
SK-OV-3 ovarian = tested on: SK-OV-3 ovarian
DU-145 prostate = tested on: DU-145 prostate
MDA-N = tested on: MDA-N
CAKI-1 renal = tested on: CAKI-1 renal
MDA-MB-231 breast = tested on: MDA-MB-231 breast
HT29 colon = tested on: HT29 colon
A498 renal = tested on: A498 renal
HOP-92 NSCLC = tested on: HOP-92 NSCLC
HS 578T breast = tested on: HS 578T breast
CCRF-CEM leukemia = tested on: CCRF-CEM leukemia
SK-MEL-5 melanoma = tested on: SK-MEL-5 melanoma
MOLT-4 leukemia = tested on: MOLT-4 leukemia
NCI-H226 lung = tested on: NCI-H226 lung

CC1CC2(OC2C)C(=O)OC2CCN(C)C/C=C(/COC(=O)C1(C)O)C2=O (stereo unspecified)
TGI (UO-31 renal): > 100 µM
TGI (SNB-19 CNS): > 100 µM
TGI (U251 CNS): > 100 µM
TGI (NCI-H522 lung): > 100 µM
TGI (UACC-62 melanoma): > 100 µM
TGI (HCT-116 colon): > 100 µM
TGI (HCT-15 colon): > 100 µM
TGI (786-0 renal): > 100 µM
TGI (RXF 393 renal): > 100 µM
TGI (SF-295 CNS): > 100 µM
TGI (MALME-3M melanoma): > 100 µM
TGI (K-562 leukemia): > 100 µM
TGI (BT-549 breast): > 100 µM
TGI (SF-268 CNS): > 100 µM
TGI (ACHN renal): > 100 µM
TGI (OVCAR-8 ovarian): > 100 µM
TGI (SF-539 CNS): > 100 µM
TGI (A549 NSCLC): > 100 µM
TGI (OVCAR-3 ovarian): > 100 µM
TGI (SNB-75 CNS): > 100 µM
TGI (HCC-2998 colon): > 100 µM
TGI (PC-3 prostate): > 100 µM
TGI (EKVX NSCLC): > 100 µM
TGI (NCI/ADR-RES ovarian): > 100 µM
TGI (SN12C renal): > 100 µM
TGI (NCI-H460 lung): > 100 µM
TGI (UACC-257 melanoma): > 100 µM
TGI (KM12 colon): > 100 µM
TGI (IGROV1 ovarian): > 100 µM
TGI (OVCAR-5 ovarian): > 100 µM
TGI (MCF7 breast): > 100 µM
TGI (NCI-H23 lung): > 100 µM
TGI (T-47D breast): > 100 µM
TGI (RPMI-8226 leukemia): > 100 µM
TGI (OVCAR-4 ovarian): > 100 µM
TGI (HL-60(TB) leukemia): > 100 µM
TGI (TK-10 renal): > 100 µM
TGI (HOP-62 NSCLC): > 100 µM
TGI (M14 melanoma): > 100 µM
TGI (SK-MEL-28 melanoma): > 100 µM
TGI (COLO 205 colon): > 100 µM
TGI (LOX IMVI melanoma): > 100 µM
TGI (MDA-MB-435): > 100 µM
TGI (SW-620 colon): > 100 µM
TGI (SK-MEL-2 melanoma): > 100 µM
TGI (SK-OV-3 ovarian): > 100 µM
TGI (DU-145 prostate): > 100 µM
TGI (MDA-N): > 100 µM
TGI (CAKI-1 renal): > 100 µM
TGI (MDA-MB-231 breast): > 100 µM
TGI (HT29 colon): > 100 µM
TGI (A498 renal): > 100 µM
TGI (HOP-92 NSCLC): > 100 µM
TGI (HS 578T breast): > 100 µM
TGI (CCRF-CEM leukemia): > 100 µM
TGI (SK-MEL-5 melanoma): > 100 µM

O=C1C(C=NC(=S)c2ccccc2)=C(O)c2ccccc21
TGI (UO-31 renal): > 88.9 µM
TGI (SNB-19 CNS): > 100 µM
TGI (U251 CNS): > 100 µM
TGI (NCI-H522 lung): 50.9 µM
TGI (UACC-62 melanoma): > 100 µM
TGI (HCT-116 colon): > 100 µM
TGI (HCT-15 colon): > 100 µM
TGI (786-0 renal): > 66.7 µM
TGI (RXF 393 renal): > 100 µM
TGI (SF-295 CNS): > 100 µM
TGI (K-562 leukemia): > 100 µM
TGI (BT-549 breast): > 94 µM
TGI (SF-268 CNS): > 100 µM
TGI (MOLT-4 leukemia): 69.3 µM
TGI (ACHN renal): > 100 µM
TGI (OVCAR-8 ovarian): > 100 µM
TGI (SF-539 CNS): > 100 µM
TGI (A549 NSCLC): > 100 µM
TGI (OVCAR-3 ovarian): > 100 µM
TGI (SNB-75 CNS): > 100 µM
TGI (HCC-2998 colon): > 100 µM
TGI (PC-3 prostate): > 100 µM
TGI (EKVX NSCLC): > 100 µM
TGI (NCI/ADR-RES ovarian): > 100 µM
TGI (SN12C renal): > 100 µM
TGI (NCI-H460 lung): > 100 µM
TGI (NCI-H226 lung): > 100 µM
TGI (UACC-257 melanoma): > 100 µM
TGI (KM12 colon): > 100 µM
TGI (IGROV1 ovarian): > 70.5 µM
TGI (OVCAR-5 ovarian): > 100 µM
TGI (MCF7 breast): > 100 µM
TGI (NCI-H23 lung): > 100 µM
TGI (T-47D breast): > 100 µM
TGI (RPMI-8226 leukemia): 67.6 µM
TGI (OVCAR-4 ovarian): > 100 µM
TGI (HL-60(TB) leukemia): 22 µM
TGI (TK-10 renal): > 100 µM
TGI (HOP-62 NSCLC): > 100 µM
TGI (M14 melanoma): > 100 µM
TGI (SK-MEL-28 melanoma): > 100 µM
TGI (COLO 205 colon): > 100 µM
TGI (LOX IMVI melanoma): > 67.9 µM
TGI (MDA-MB-435): > 100 µM
TGI (SW-620 colon): > 100 µM
TGI (SK-MEL-2 melanoma): > 100 µM
TGI (SK-OV-3 ovarian): 85.6 µM
TGI (DU-145 prostate): > 100 µM
TGI (MDA-N): > 100 µM
TGI (CAKI-1 renal): > 100 µM
TGI (MDA-MB-231 breast): > 100 µM
TGI (HT29 colon): > 100 µM
TGI (HOP-92 NSCLC): > 84.8 µM
TGI (HS 578T breast): > 100 µM
TGI (CCRF-CEM leukemia): 53.9 µM
TGI (SK-MEL-5 melanoma): > 100 µM

CCSc1n/c(=C\c2ccc(N(C)C)cc2)c2nnnn12
TGI (SNB-19 CNS): > 100 µM
TGI (U251 CNS): > 100 µM
TGI (NCI-H522 lung): > 100 µM
TGI (UACC-62 melanoma): > 100 µM
TGI (HCT-116 colon): > 100 µM
TGI (HCT-15 colon): > 100 µM
TGI (786-0 renal): > 100 µM
TGI (RXF 393 renal): > 100 µM
TGI (SF-295 CNS): > 100 µM
TGI (MALME-3M melanoma): > 100 µM
TGI (BT-549 breast): > 100 µM
TGI (SF-268 CNS): > 100 µM
TGI (MOLT-4 leukemia): > 100 µM
TGI (ACHN renal): > 100 µM
TGI (OVCAR-8 ovarian): > 100 µM
TGI (A549 NSCLC): > 100 µM
TGI (OVCAR-3 ovarian): > 100 µM
TGI (SNB-75 CNS): > 100 µM
TGI (HCC-2998 colon): > 100 µM
TGI (PC-3 prostate): > 100 µM
TGI (EKVX NSCLC): > 100 µM
TGI (NCI/ADR-RES ovarian): > 100 µM
TGI (SN12C renal): > 100 µM
TGI (NCI-H460 lung): > 100 µM
TGI (NCI-H226 lung): > 100 µM
TGI (UACC-257 melanoma): > 100 µM
TGI (KM12 colon): > 100 µM
TGI (IGROV1 ovarian): > 100 µM
TGI (OVCAR-5 ovarian): > 100 µM
TGI (MCF7 breast): > 100 µM
TGI (NCI-H23 lung): > 100 µM
TGI (T-47D breast): > 100 µM
TGI (RPMI-8226 leukemia): > 100 µM
TGI (OVCAR-4 ovarian): > 100 µM
TGI (HL-60(TB) leukemia): > 100 µM
TGI (TK-10 renal): > 100 µM
TGI (HOP-62 NSCLC): > 100 µM
TGI (M14 melanoma): > 100 µM
TGI (SK-MEL-28 melanoma): > 100 µM
TGI (COLO 205 colon): > 100 µM
TGI (MDA-MB-435): > 100 µM
TGI (SW-620 colon): > 100 µM
TGI (SK-MEL-2 melanoma): > 100 µM
TGI (SK-OV-3 ovarian): > 100 µM
TGI (DU-145 prostate): > 100 µM
TGI (MDA-N): > 100 µM
TGI (CAKI-1 renal): > 100 µM
TGI (MDA-MB-231 breast): > 100 µM
TGI (HT29 colon): > 100 µM
TGI (A498 renal): > 100 µM
TGI (HOP-92 NSCLC): > 100 µM
TGI (HS 578T breast): > 100 µM
TGI (CCRF-CEM leukemia): > 100 µM
TGI (SK-MEL-5 melanoma): > 100 µM

— PubChem BioAssay (NCI)
